{
  "source": "paper PMC6891695",
  "about": "“Evaluation of Antifouling Potential and Ecotoxicity of Secondary Metabolites Derived from Red Algae of the Genus Laurencia” (Marine Drugs, 2019)",
  "test_system": "A. salina nauplii",
  "assay": "Artemia salina toxicity assay",
  "format": "in vivo",
  "conditions": "24 and 48 h",
  "procedure,_shortened": "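Instar I nauplii, hatched over 24 h in artificial seawater at 25 °C, exposed ten per well to compounds added in methanol for 48 h in the dark at 25 °C. Mortality scored as no appendage movement within 10 s; IC50/EC50 from normalized-response curve fits, three experiments with four replicates.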",
  "data": [
    {"smiles": "CC(C)[C@@H]1CC=C[C@H]2[C@H]3[C@](C)(CC[C@]12CBr)[C@@H](Br)CC[C@@]3(C)O", "note": "[Bromosphaerol, reference compound]", "values": [
      {"measurement": "toxicity against A. salina nauplii (in words)", "result": "did not show any toxicity"}
    ]}
  ]
}
